Values of other authors in paper PMC2742322 (Bioorganic & medicinal chemistry letters, 2008).

Target: μ-opioid receptor (Cavia porcellus, UniProt A0ACM8Q262)
Conditions: read-out: IC50^μ (GPI); functional bioactivity

Sequence of μ-opioid receptor (A0ACM8Q262 1-400): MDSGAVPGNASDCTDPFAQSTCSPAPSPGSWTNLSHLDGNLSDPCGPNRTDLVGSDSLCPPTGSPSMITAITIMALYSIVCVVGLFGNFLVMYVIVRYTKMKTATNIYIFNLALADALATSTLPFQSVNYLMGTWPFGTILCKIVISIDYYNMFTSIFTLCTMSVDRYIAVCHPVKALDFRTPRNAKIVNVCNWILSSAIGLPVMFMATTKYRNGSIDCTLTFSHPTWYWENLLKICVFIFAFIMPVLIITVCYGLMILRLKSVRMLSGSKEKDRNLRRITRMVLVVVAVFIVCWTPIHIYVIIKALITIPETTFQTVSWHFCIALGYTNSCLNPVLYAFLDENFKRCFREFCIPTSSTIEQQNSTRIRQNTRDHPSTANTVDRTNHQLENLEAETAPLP

Tyr^1-Pro^2-Trp^3-Phe^4-NH2 [EM-1]
IC50: 9.7 ± 2.21 nM
